According to patent publication US7064243B2, “Screens and assays for agents useful in controlling parasitic nematodes” (Cambria Biosciences LLC, priority 2001, dated 2006):
Entries after “also recorded” stand apart in the source; their conditions may differ. Where two headings read alike, the source gives them in different places.

Key:
ASP-1 release = settings: hookworm larvae, cited from earlier work
A. caninum L3 larvae = settings: in vivo; cited from earlier work
[1] = tested on: secretion of the VAP-1-Myc fusion protein; experiment: Secretion assay: immunoblot (anti-Myc) of VAP-1-Myc in conditioned axenic media of worms bearing the vap-1::myc transgene; format: in vivo, C. elegans; settings: various concentrations, 16 hours, 24 well plates, dose-dependent fashion (FIG. 8)
Method: Worms (either animals bearing the vap-1::myc transgene or unc-119 (e2498) mutants rescued with plasmid pPD#MM016B as a negative control) were cultured in S basal medium (recipe below) containing HB101 bacteria as a food source for 4–5 days as described below. The worms were separated from the media by centrifugation and washed several times in S basal media. Worms were then resuspended in 50 ml of axenic media (recipe below) and cultured overnight (˜20 h). A vessel containing only axenic media without worms was maintained under identical conditions as a control. The worm density in both the vap-1::myc and unc-119 cultures was approximately 50,000 per ml. It was estimated that 50–70% of the worms carry the transgene.
After overnight incubation in axenic media, the worms and media were separated by centrifugation (see below for details) and the media were concentrated using Centriprep 30 concentrators (see below for details). […]
To determine the effect of 4,7 phenanthroline on secretion of the VAP-1-Myc fusion protein, worms (either transformation control or bearing the vap-1::myc transgene) were cultured in 24 well plates (in a manner similar to the 96 well scaledown protocol described below) in axenic media in the presence of various concencentrations of 4,7 phenanthroline for 16 hours. […] VAP-1-Myc fusion protein was detected with anti-Myc antibody as described above.

For `c1cnc2ccc3ncccc3c2c1` [4,7-phenanthroline], the “release of ASP-1” value (ASP-1 release) is listed as “known inhibitor; also recorded: blocked”, the “release of ASP-1” value (ASP-1 release; listed as 4,7 phenanthroline) is listed as “known inhibitor” and the “resumption of larval hookworm development” value (A. caninum L3 larvae) is listed as “blocked”. For the same compound, the “secretion of the VAP-1-Myc fusion protein” value [1] was “inhibited”.
